{
  "source": "patent US20110306579A1",
  "about": "“METHODS OF NEUROPROTECTION USING NEUROPROTECTIVE STEROIDS AND A VITAMIN D” (EMORY UNIVERSITY, priority 2009, published 2011)",
  "key": {"[1]": {"tested_on": "20-month-old male Fischer 344 rats", "experiment": "Spontaneous locomotor activity (open field) after TBI", "format": "in vivo, rat", "conditions": "72 hours after injury; normalized to sham", "excerpt": "The animals in this study were separated into two groups, vitamin D normal (D-normal) and vitamin D deficient (D-deficient). […] Animals in the D-deficient group were maintained on the diet for at least 21 days prior to surgery. […] For this same reason the null diet was not altered in any other way, and the rats assigned to the D-deficient group were maintained on it until they were killed for harvesting of brain tissue. Since vitamin D is activated by UVB light (280-315 nm wavelength), the overhead lights were modified to not produce radiation in this range.\nAnimals dehydrated due to blood loss were given 3 mL of lactated Ringer's solution subcutaneously within 6 hours of injury.\nAnimals were assigned to D-normal or D-deficicnt groups. […] The same assignment was followed for both 24-hour and 72-hour survival groups. […] All drug treatments were dissolved in vehicle, and injection volume was equally proportional to each animal's weight across all groups. The intact sham (SHAM) groups served to provide baseline data and therefore received no injury or injections.\nIn addition to molecular measures of inflammatory cytokines, the behavioral effects of the various treatments were examined. Since this study was limited to the short term effects on inflammation, only short-term Spontaneous Locomotor Activity was used."}, "MAPK (ERK1/2)": {"tested_on": "MAPK (ERK1/2)", "experiment": "MAPK phosphorylation (p-ERK1/2 Western blot) in primary cortical neurons", "format": "cell-based, rat", "conditions": "PROG 20 μM, 30-minute treatment", "method": "PROG and VDH were added to the primary cultures, as described above, for 30 minutes ([…], et al., (2002) Endocrinology 143: 205-212) and the cells were lysed using RIPA lysis buffer kit (sc-24948, Santa Cruz, Calif., USA). Protein was determined in cell lysates by bicinchoninic acid (BCA) protein assay (Cat. # 23225, Pierce, Rockford, Ill., USA). Cell lysates (40 μg protein each sample) were separated under reducing and denaturing conditions by 12.5% acrylamide Criterion gel (BioRad, Hercules, Calif., USA) at 200V for 1 hour and transferred to a polyvinylidene difluoride (PVDF) membrane at 100V for 30 minutes. The non-specific binding sites of the membrane were blocked with 5% non-fat dry milk in PBS-T (phosphate buffered saline containing 0.05% Tween-20). […] Membranes were then incubated in horseradish peroxidase (HRP)-conjugated secondary antibody (Goat anti-rabbit IgG; 074-1506, KPL, Gaithersburg, Md., USA). β-actin was probed as a loading control. Blots were developed using a chemiluminescent substrate (Pierce) for 5 minutes."}, "[2]": {"tested_on": "E18 rat primary cortical neurons", "experiment": "Morphological analysis of cortical cultures (phase contrast)", "format": "cell-based", "conditions": "glutamate 0.5 μM for 24 h; data not shown", "description": "Changes in the morphology of neurons treated with different drugs in various groups were observed using a phase-contrast microscope (Nikon). Primary cultures were mainly observed for neurite outgrowth, a hallmark feature of healthy cells, and the density of healthy cells in different groups."}, "[3]": {"tested_on": "20-month old Fischer 344 rats", "experiment": "Cerebral edema analysis after cortical contusion brain injury", "format": "in vivo, rat", "conditions": "4 mg/kg", "method": "The methodology used is described in VanLandingham et al., Neuropharmacology, 2006, 51, 1078-1085.\nSterile surgical procedures were used to prevent animal infection. Rats (20-month old Fischer 344 rats, which are the “human” equivalent of about 60 years old) were anesthetized and maintained on isoflurane and an equivalent amount of […] and O2 for 3 min prior to surgery. After brain contusion, O2 levels were doubled compared to […] and maintained through the reainder of the surgery procedure. A stereotaxic apparatus was used to stabilize the head in a horizontal position. Core body temperature was monitored and maintained at 37° C. using a Harvard homeothermic blanket (Harvard Apparatus, Holliston, Mass.). There was no direct measure used to deterct brain temperature. Blood oxygen and heart rate were maintained using a SurgiVet monitor (SurgiVet, Waukesha, Wis.) and maintained above 90% and 340 bpm respectively. A midline incision was made and the scalp retracted. A bilateral 6-mm craniotomy was performed with surgical drill centered at 3 mm rostral to bregma. The stainless steel impactor was positioned over the MFC at 3.0 mm A/P and 0.0 M/L. These coordinates represent the MFC as described by Paxinos and Watson (The Rat Brain in Stereotaxic Coordinates, Academic Press, San Diego, 1986). The cortical injury was induced using a pneumatically controlled device (Hoffman et al., J. Neurotrauma, 1994, 11, 417-431). Brain impact duration was 0.5 s. using a 5-mm impactor tip with a velocity set at 2.125 m/s and a cortical depth of 2 mm. Following the contusion, bleeding was halded and fascia and scalp were sutured shut. After surgery, animals were allowed to recover from anesthesia on a homeothermic heating blanket in a holding cage until awake. sham surgeries controlled for anesthesia and stress. All surgical procedures were the same, except that sham rates were not given a craniotomy or cortical injury. Previous studies using craniotomy as a control found no differences between shams with or without this procedure. (Goss et al., Pharmacol. Biochem. Behay. 2003, 76(2), 231-242).\nThese experimental solutions were then diluted 1:1 with sterile water for a final concentration of HBC of 22.5%.\nAll injections were done at the same time with brain harvesting at 24 h post-injury. Rats in each group were weightd prior to treatment to ensure proper dosage. The first injection at 1 h after surgery was given intraperitoneally to ensure rapid adsorption. All subsequent injections were made subcutaneously for gradual adsorption at 6 and 24 h. Injection times and neurosteroid doses were based on previous results of neurosteroid treatment (Roof et al., Twenty First Annual Meeting of the Society for Neuroscience, Miami Beach Fla., p. 191 and He et al., Exp. Neurol. 2004, 189, 404-412). The sterioids were dissolved in vehicle (22.5% 2-hydroxypropyl-b-cyclodextrin solution) at 4 mg/kg. The sham group received no treatment and injury control group received vehicle only.\nAt 24 h after traumatic brain injury flresh brains were extracted from the skull and the dorsal cerebrum was separated along the line of the lateral fissure. Four 3-mm coronal sections were cut rostral to caudal, placed in pre-weighed 1.5 mL tubes and re-weighed (wet weight). Tubes were then left uncapped and placed in a vacuum oven set at 60° C. with an atmospheric pressure of 0.3 for 48 h. Following tube recapping, the tissue samples were again weighed (dry weight). Cerebral edema (% water content) was determined as the difference in wet and dry weights divided by wet weight (Roof and Stein Restor. Neurol. Ncurosci., 1992, 4, 425-427). Edema measures are reflective of the difference inwater content between at the average of the two most rostral (injury region) segments and most caudal (occipital cortex) segments of the dorsal sections of the brain."}},
  "data": [
    {"smiles": "CC(=O)[C@H]1CCC2C3CCC4=CC(=O)CC[C@]4(C)C3CC[C@@]21C", "note": "(some centres unmarked) [progesterone]", "values": [
      {"measurement": "spontaneous locomotor activity (total distance, resting, stereotypy, movement time)", "setting": "[1]", "result": "little or no benefit"},
      {"measurement": "increase in p-ERK1/2 level compared to control group", "setting": "MAPK (ERK1/2)", "result": 2, "unit": "×"},
      {"measurement": "morphology of neurons (neuronal processes, number of neurons) after glutamate", "setting": "[2]", "result": "rescued neurons"},
      {"measurement": "edema compared to subjects treated with vehicle", "setting": "[3]; 24 hours post brain injury", "result": "decrease in edema"},
      {"measurement": "mean % difference edema", "setting": "[3]; brain tissue 24 hours post brain injury, i.p. at 1 h, s.c. at 6 and 24 h", "result": 2.0, "unit": "%"}
    ]}
  ]
}
